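Following 48 hours of exposure in 96-well plates, responses at five concentrations were used to interpolate endpoints linearly. GI50 marks 50% less growth. TGI marks complete inhibition of growth.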 Where a SMILES comes first, the peptide text is derived from it. Bridges are numbered along the chain shown (N, C = ends). [ ]: non-standard residue; d: D form. The star is where a group is joined. Cbz = O=C(OCc1ccccc1)*; Aib = CC(C)(N)C(=O)O; OBn = c1ccc(CO*)cc1; βAla = NCCC(=O)O
Legend:
Assay in all cases: NCI anticancer screen, dose series, 48 h
IGROV1 ovarian = test system: IGROV1 ovarian
DMS 273 small cell lung = test system: DMS 273 small cell lung
XF 498 CNS = test system: XF 498 CNS
KM20L2 colon = test system: KM20L2 colon
DMS 114 small cell lung = test system: DMS 114 small cell lung
SNB-78 CNS = test system: SNB-78 CNS
LXFL 529 NSCLC = test system: LXFL 529 NSCLC
M19-MEL melanoma = test system: M19-MEL melanoma
DLD-1 colon = test system: DLD-1 colon
HOP-18 NSCLC = test system: HOP-18 NSCLC
RXF-631 renal = test system: RXF-631 renal

Compound | TGI (IGROV1 ovarian) [µM] | other results
CCSc1nc(N2CCOCC2)c2cn[nH]c2n1 | > 100 | 
COc1cc(C2c3cc4c(cc3[C@@H](Nc3ccccc3)C3CO[C@@H](OC)[C@H]23)OCO4)cc(OC)c1O (some centres undefined) | > 25 | 
C1=C2C3=[N+](CCCC3)CC2Cc2ccsc21 (centres undefined) | > 100 | 
CC1=CC(=O)NCCN1C | > 100 | TGI (DMS 273 small cell lung): > 100 µM; TGI (XF 498 CNS): > 100 µM; TGI (KM20L2 colon): > 100 µM; TGI (DMS 114 small cell lung): > 100 µM; TGI (SNB-78 CNS): > 100 µM; TGI (LXFL 529 NSCLC): > 100 µM; TGI (M19-MEL melanoma): > 100 µM; TGI (DLD-1 colon): > 100 µM; TGI (HOP-18 NSCLC): > 100 µM
CC(=O)O[C@@H]1C=C(C)[C@H](CBr)O[C@@]2(C)CC[C@H](Br)C(C)(C)[C@H]12 | > 100 | 
CCOC(=O)/C(O)=C(/C=NC(=S)c1ccncc1)C(=O)OCC | > 100 | 
Brc1ccc2c(-c3nc(-c4c[nH]c5ccc(Br)cc45)cs3)c[nH]c2c1 | 16.9 | 
CC(=O)OCC1OC(N2C(c3ccccc3)=CC(c3ccccc3)C(C#N)=C2S)C(OC(C)=O)C(OC(C)=O)C1OC(C)=O (centres undefined) | > 52.9 | 
O=C(Nc1ccc2nc(-c3ccccc3)cn2c1)Oc1ccccc1 | > 100 | 
Clc1cccc(Cl)c1C1SCC2=Nc3ccccc3CN21 (centres undefined) | 62.5 | 
O=C1CCC(c2ccccc2)C(O)(C(=O)O)C1 (centres undefined) | > 100 | TGI (DMS 273 small cell lung): > 100 µM; TGI (KM20L2 colon): > 100 µM; TGI (SNB-78 CNS): > 100 µM; TGI (LXFL 529 NSCLC): > 100 µM; TGI (M19-MEL melanoma): > 100 µM; TGI (DLD-1 colon): > 100 µM; TGI (HOP-18 NSCLC): > 100 µM; TGI (RXF-631 renal): > 100 µM
COc1cccc(C2c3cc4c(cc3OC(N3CCCC3)C2C)OCO4)c1 (centres undefined) | 38.7 | 
CCOC(=O)N/N=C(/N)Cc1ccccc1 | > 100 | 
Cc1c(Cc2ccccc2)n(COCCCO)c(=O)[nH]c1=O | > 100 | 
C=C(C)[C@@H](C(=O)OC)N1C(=O)c2ccccc2C1=O | > 100 | 
CCCCCCCCCCCCCCCCCc1cccc(OCOCCOC)c1CO | > 100 | 
CSc1ccc(C2C(Cl)C(=O)N2NC(=O)c2c(Cl)c(Cl)c(Cl)c(Cl)c2-c2nc3ccccc3[nH]2)cc1 (centres undefined) | 2.14 | 
CO/N=C(\C(=O)Nc1cncs1)c1csc(NC(c2ccccc2)(c2ccccc2)c2ccccc2)n1 | > 10 | 
C=C1CC[C@@]2(OC1)OC1C[C@H]3[C@@H]4CC=C5C[C@@H](O)CC(OC6OCC(OC(=O)[C@@H](O)[C@@H](C)CC)C(OC(C)=O)C6OC6OC(C)C(O)C(O)C6O)[C@]5(C)[C@H]4CC[C@]3(C)C1[C@@H]2C (some centres undefined) | 7.79 | 
Nc1nc(Cl)cc(NCC2(CO)CC(OCc3ccccc3)C2)n1 (centres undefined) | > 100 | 
CN(C)/N=C(\CCN1CCCC1)CC(c1ccccc1)c1c(O)c2ccccc2oc1=O (centres undefined) | > 100 | TGI (XF 498 CNS): > 100 µM; TGI (KM20L2 colon): > 100 µM; TGI (LXFL 529 NSCLC): > 100 µM; TGI (M19-MEL melanoma): > 100 µM; TGI (DLD-1 colon): > 100 µM
N#CC1=C(N2CCCC2)NC(=O)CC1=O | > 100 | 
CC1=CC(=O)NP(=O)(Oc2ccc(C)cc2)N1 (centres undefined) | > 100 | TGI (DMS 273 small cell lung): > 100 µM; TGI (XF 498 CNS): > 100 µM; TGI (KM20L2 colon): > 100 µM; TGI (DMS 114 small cell lung): > 100 µM; TGI (SNB-78 CNS): > 100 µM; TGI (LXFL 529 NSCLC): > 100 µM; TGI (M19-MEL melanoma): > 100 µM; TGI (DLD-1 colon): > 100 µM; TGI (HOP-18 NSCLC): > 100 µM; TGI (RXF-631 renal): > 100 µM
CCCCn1c(C)c(C(=O)OCC)c2cc(OCc3ccc(C(=O)Nn4c(C)ccc4C)cc3)c(Br)cc21 | > 100 | 
Cc1cc(=O)[nH]c(NNC(C#N)c2ccc(O)cc2)n1 (centres undefined) | > 100 | TGI (DMS 273 small cell lung): > 100 µM; TGI (KM20L2 colon): > 100 µM; TGI (DMS 114 small cell lung): > 100 µM; TGI (SNB-78 CNS): > 100 µM; TGI (LXFL 529 NSCLC): > 100 µM; TGI (M19-MEL melanoma): > 100 µM; TGI (DLD-1 colon): > 100 µM; TGI (HOP-18 NSCLC): > 100 µM

Compound | TGI (IGROV1 ovarian) [µM] | other results
Cc1ccc2nc3ccccc3c(C3C4C(=O)N(c5ccc(Br)cc5Cl)C(=O)C4ON3C(C(N)=O)c3ccccc3)c2c1 (centres undefined) | > 25 | 
O=C1NNC(=O)C2C3c4ccccc4C(c4ccccc43)C12 (centres undefined) | > 100 | 
CCOC(=O)C(Cl)(NC(=O)c1ccc(F)cc1)C(F)(F)F (centres undefined) | > 100 | 
CC1CN=C(Nc2ccc(S(N)(=O)=O)cc2)S1 (centres undefined) | > 100 | 
Clc1ccc2c(NCCCCN=Cc3ccccc3)ccnc2c1 | 36.5 | 
COC1(OC)C2(Cl)CCC1(Cl)C(OC(C)=O)C2 (centres undefined) | > 100 | 
CCC1c2[nH]c3ccccc3c2C[C@H]2C(=O)NC(CCC(=O)OC(C)(C)C)C(=O)N12 (some centres undefined) | > 100 | 
Cc1[nH]c(=O)[nH]c(=S)c1C(=O)NC(C)(CO)CO | > 100 | 
CN1CCC(OC(=O)Oc2ccccc2)(c2ccccc2)CC1 | 64.5 | 
CNC(=O)N1CCN(C(=O)NC)CCN(C(=O)NC)CC1 | > 100 | 
c1ccc2c(c1)nc1n2CNCC1 | > 100 | 
CCOc1cc(NC(C)=O)ccc1C(=O)NN1C(=O)C(Oc2ccccc2)C1c1ccc(O)c(OC)c1 (centres undefined) | > 100 | 
O=P(c1ccccc1)(c1ccccc1)C(NCc1ccccc1)c1ccc(F)cc1 (centres undefined) | 33.4 | 
CCOC(=O)NC(Nc1ccc(S(=O)(=O)Nc2ncccn2)cc1)(C(=O)OCC)C(F)(F)F (centres undefined) | > 100 | 
O=C(CCc1ccc(O)cc1)NCCc1ccc(O)cc1 | > 100 | 
S=C(/N=c1/sc(Nc2ccccc2)nc2sc3c(c12)CCCC3)Nc1ccccc1 | > 62.5 | 
C=CCN1C(=O)/C(=C/c2ccccc2)NC1=S | > 100 | 
COc1ccc2c(c1)OCc1c-2oc2ccccc2c1=O | > 100 | 
CC1(C)NC(=O)C(NC(=O)C(CC(=O)OCc2ccccc2)NC(=O)OCc2ccccc2)CCCCNC(=O)CCNC1=O (centres undefined) (Cbz-D(OBn)K[Aib][βAla]; lactam 2-C; configuration not given here) | > 100 | 
COc1ccc(-c2c(C(C)=O)c(-c3ccccc3)n(C3OC(COC(C)=O)C(OC(C)=O)C(OC(C)=O)C3OC(C)=O)c(=S)c2C#N)cc1 (centres undefined) | > 100 | 
O=P(O)(O)CN1CCN(CP(=O)(O)O)CCN(CP(=O)(O)O)CCN(CP(=O)(O)O)CC1 | > 100 | 
O=C1c2ccccc2S[C@@H](O)[C@@H]2CCCN12 | 87.9 | TGI (DMS 273 small cell lung): > 100 µM; TGI (XF 498 CNS): > 100 µM; TGI (KM20L2 colon): > 100 µM; TGI (DMS 114 small cell lung): > 100 µM; TGI (SNB-78 CNS): > 100 µM; TGI (LXFL 529 NSCLC): > 100 µM; TGI (M19-MEL melanoma): > 100 µM; TGI (DLD-1 colon): > 100 µM; TGI (HOP-18 NSCLC): > 100 µM
COC(=O)CCC(=O)NC1c2cccc3cccc(c23)Cn2c(=O)n(C)c(=O)n21 (centres undefined) | > 100 | 
O=C1NC(Nc2cccc(Cl)c2)=N/C1=C\c1ccc(Cl)c(Cl)c1 | 18.7 | 
CC(=O)NNc1nc(C)c(C(/C=C/c2cccc([N+](=O)[O-])c2)=N/NC(=S)NN)s1 | > 100 | 

Compound | TGI (IGROV1 ovarian) [µM] | other results
CC(=O)NCc1nc(C#N)c(N)o1 | > 100 | 
O=[N+]([O-])C(C(Cl)=C(Cl)Cl)=C(N1CCOCC1)N1CCOCC1 | > 100 | 
CC/C(=N/O)c1ccc(Br)s1 | > 100 | 
N#[O+].O=S(=O)([O-])[O-].[NH2-].[NH2-].[NH2-].[NH2-].[NH2-].[Ru+5] | > 100 | TGI (KM20L2 colon): > 100 µM; TGI (SNB-78 CNS): > 100 µM; GI50 (LXFL 529 NSCLC): > 100 µM; TGI (LXFL 529 NSCLC): > 100 µM; TGI (DLD-1 colon): > 100 µM
Cc1cc(C)cc(Nc2nnc3n2S(=O)(=O)c2cc(C#N)c(Cl)cc2S3)c1 | 1.68 | 
CC1=C2C3=C(C)C(=O)C(C)(C)CC[C@@]3(C)[C@]2(C)CCC(C)(C)C1=O | > 100 | 
CCN(CC)Cc1cc(Nc2ccnc3ccc4c(nnn4C)c23)ccc1O | 80.3 | 
CC(C(=O)N1c2ccccc2Sc2ccccc21)N1c2ccccc2Sc2ccccc21 (centres undefined) | > 100 | 
CCOC(=O)Cn1sc2ncc([N+](=O)[O-])cc2c1=O | 25.9 | 
Nc1ccc(C(=O)Nn2c(-c3ccccc3)nc3ccccc3c2=O)cc1 | > 100 | 
Cc1oc2nc(N(C)C)nc(Cl)c2c1C | > 100 | 
NC(N)=N/N=C/c1c(Cl)nc2sccn12 | > 100 | 
CSc1nc(Cl)c2c(n1)Sc1nc3cc4c(cc3n1C2O)OCO4 (centres undefined) | > 72.2 | 
Cc1ccc(S(=O)(=O)OC2C3OC(C)(C)OC3OC2C(c2cc(O)c3c(c2O)C(=O)c2ccccc2C3=O)c2cc(O)c3c(c2O)C(=O)c2ccccc2C3=O)cc1 (centres undefined) | > 10 | 
CC(C)NC(=O)OCc1c(COC(=O)NC(C)C)c(-c2ccc[n+](COC(=O)CC(C)(C)C)c2)n2c1CCC2 | > 100 | 
CCOC(=O)C(=C(SC)SC)c1nn2c(=O)cc(C)nc2s1 | 47.5 | 
Cn1c(=O)c2c(nc(NCCCCl)n2CC(=O)NCCCCl)n(C)c1=O | > 100 | 
O=C(c1ccccc1)c1c2ccccn2c2cccc[n+]12 | > 100 | 
CCOC(=O)CC(NC(=O)c1nc[nH]c1[N+](=O)[O-])C(=O)OCC (centres undefined) | > 100 | TGI (DMS 273 small cell lung): > 100 µM; TGI (DMS 114 small cell lung): > 100 µM; TGI (LXFL 529 NSCLC): > 100 µM; TGI (M19-MEL melanoma): > 100 µM; TGI (DLD-1 colon): > 100 µM
O=C(CC(=O)n1nc(-c2ccccc2)c(N=Nc2ccc(Cl)cc2)c1-c1ccccc1)Nc1cccc(Cl)c1 | > 100 | 
Cc1cc(O)c(/C=N/C(=S)NCCc2ccccc2)c(=O)o1 | > 100 | 
Oc1cc(O)c2c(c1)O[C@H](c1cc(O)c(O)c(O)c1)[C@H](O)C2 | 41.9 | 
CCCN=C(NC(=O)c1ccc(Cl)cc1)SC | > 100 | 
N#Cc1nc(COCCOCc2ccccc2)oc1N | > 100 | 
O=C(CC(=O)N(C(=O)c1ccccc1)c1ccc(Cl)cc1)N/N=C\c1cc(N=Nc2ccccc2Cl)ccc1O | > 100 | 
